# According to US7161064B2, “Method for producing stably transformed duckweed using microprojectile bombardment” (North Carolina State University, priority 1997, dated 2007):
# Assays:
# [1] = system: L. minor strains 8744 and 8627; experiment: Callus induction from Lemna minor fronds, auxin and cytokinin type and concentration; assay type: cell-based; details: MS medium, 6 weeks
# Method: In the auxin type and concentration experiment, four auxins: 2,4-D, NAA, IBA and dicamba were tested, each at four concentrations: 2, 5, 10 and 20 μM, for their ability to induce callus formation from L. minor strains 8744 and 8627. The basal medium used was MS and media and experimental protocol was basically that followed in Example 10. Fronds used in this experiment were grown for 2 weeks prior to plating on callus induction medium under 3 different culture conditions: 1) SH medium without plant growth regulators, 2) F medium with 24 μM 2,4-D and 2 μM 2-iP, and 3) SH medium with 24 μM 2,4-D and 2 μM 2-iP. Fronds were separated, the roots cut off and then plated on induction medium. The fronds were incubated under conditions given in Example 8 for 6 weeks at which time cultures were evaluated for the presence or absence of callus induction, the degree to which the callus proliferated, and the basic morphology of the callus present.
# In the cytokinin type and concentration experiment, four cytokinins: BA, kinetin, 2-iP, and thidiazuron were tested, each at five concentrations: 0.05, 0.1, 0.5, 1 and 5 μM, for their ability to induce callus formation from L. minor strains 8744 and 8627. The basal medium used was MS and the media and experimental protocol were basically as described in Example 11. Fronds used in this experiment were grown for 2 weeks prior to plating on callus induction medium under 3 different culture conditions: 1) SH medium without plant growth regulators, 2) F medium with 24 μM 2,4-D and 2 μM 2-iP, and 3) SH medium with 24 μM 2,4-D and 2 μM 2-iP. Fronds were separated, the roots cut off and then plated on induction medium. The fronds were incubated under conditions given in Example 8 for 6 weeks at which time cultures were evaluated for the presence or absence of callus induction, the degree to which the callus proliferated, and the basic morphology of the callus.
# [2] = system: L. minor callus cultures, strain 8744 and strain 8627; experiment: Frond regeneration from L. minor callus cultures; assay type: cell-based, Lemna minor; details: 8 weeks
# Method: The effect of medium composition on frond regeneration from L. minor callus cultures was also tested. Seven media formulations were tested: (1) water agar, (2) water agar with 100 μM adenine sulfate, (3) water agar with 10 μM BA, (4) water agar with 10 μM BA and 1 μM IBA, (5) half-strength SH, (6) half-strength SH with 10 μM BA, and (7) half-strength SH with 10 μM BA and 1 μM IBA. […] Callus was incubated on the seven different media for 8 weeks, with continual observation for the development of fronds.
# [3] = system: Lemna gibba G3; experiment: GUS expression in fronds after co-cultivation with Agrobacterium tumefaciens AT656 (histochemical staining); assay type: cell-based
# Method: Duckweed fronds were grown on liquid Schenk and Hildebrandt medium containing 1% sucrose with and without 10 μM indoleacetic acid (IAA), a concentration sufficient to increase proliferation rate. Fronds were grown in 25 ml aliquots of medium in 125 ml flasks, at 23° C. under a 16 hr light/8 hr dark photoperiod with light intensity of approximately 40 μmol/m^2·sec. For co-cultivation, 500 ml of Schenk and Hildebrandt medium containing 1% sucrose, 0.8% agar, 20 mg/L acetosyringone, and with and without 10 μM indoleacetic acid was prepared, pH adjusted to 5.6, autoclaved at 121° C. for 30 minutes, and cooled. Filter-sterilized solutions of acetosyringone, and acetosyringone and indoleacetic acid were added to the cooled medium, to the final, appropriate concentrations. Twenty, 100 mm×15 mm petri dishes were poured from the cooled medium.
# A randomized block, experimental design with 2 bacterial strain treatments×2 frond growth media, with 5 replications, with one petri dish per replication, and 20 fronds per petri dish was used. For inoculation, bacteria of each strain were separately resuspended as described in Example 21. For inoculation, individual fronds were separated from clumps, each turned abaxial side up and wounded with a sterile scalpel in the meristematic regions, then transferred to bacterial suspensions of either AT656 or EHA101pJR1, and incubated for 10–15 minutes. For co-cultivation, fronds were transferred to solid Schenk and Hildebrandt medium with 1% sucrose, 0.8% agar and 100 μM acetosyringone with and without 10 μM indoleacetic acid as described above, abaxial side down.
# The fronds were co-cultivated for 4 days at 23° C. under a 16 hr light/8 hr dark photoperiod with light intensity of approximately 40 μmol/m^2·sec. The fronds from two plates from each of the four treatments were stained for GUS expression.
# Lemna gibba G3 fronds were grown for two weeks on liquid. Schenk and Hildebrandt medium containing 1% sucrose and with or without 10 μM indoleacetic acid in 25 ml aliquots in 125 ml flasks, at 23° C. under a 16 hr light/8 hr dark photoperiod with light intensity of approximately 40 μmol/m^2·sec prior to experimentation. For co-cultivation, 900 ml of Schenk and Hildebrandt medium containing 1% sucrose, 0.8% agar, with and without 10 μM indoleacetic acid, and 20 mg/L acetosyringone was prepared, the pH was adjusted to 5.6, the medium autoclaved at 121° C. for 30 minutes, and cooled. Filter-sterilized solutions of acetosyringone and indoleacetic acid were added to the appropriate, final medium concentrations. Thirty-six, 100 mm×15 mm petri dishes were poured from the cooled medium. Three bacterial media: 1) AB minimal containing 1.6% agar (AB), Difco potato dextrose medium with 1.6% agar (PDA), and mannitol glutamine (Roberts and Kerr, Physiol. […]
# [4] = system: Lemna gibba G3; experiment: Callus induction from Lemna gibba G3 fronds on solid medium with plant growth regulators; assay type: cell-based
# Method: Duckweed fronds were grown in liquid Hoagland's medium (Hoagland and Snyder, Proc. Amer. Soc. Hort. Sci. 30, 288 (1933)) containing 3% sucrose for two weeks at 23° C. under a 16 hr light/8 hr dark photoperiod with light intensity of approximately 40 μmol/m^2·sec prior to experimentation. For callus induction, eighteen, 100 ml portions of Murashige and Skoog basal medium (Murashige and Skoog, Physiol. Plant. 15, 473 (1962)) containing 3% sucrose, 0.15% Gelrite and 0.4% Difco Bacto-agar were prepared with 2,4-D concentrations of 10, 20 and 50 μM and BA concentrations of 0, 0.01, 0.1, 1.0, 2.0, and 10.0 μM. All media were pH adjusted to 5.8, autoclaved at 121° C. for 20 minutes, cooled, and each 100 ml was poured into 4, 100 mm×15 mm petri dishes.
# (§1) A three 2,4-D concentrations×six BA concentrations, full-factorial experimental design (18 treatments in total) with four replications, with one petri dish per replication and 5 fronds per petri dish was used. For callus induction, 5 individual duckweed fronds were placed abaxial side down on each plate of medium. The 72 plates were incubated at 23° C., for 27 days under a 16 hr light/8 hr dark photoperiod with light intensity of approximately 40 μmol/m^2·sec. After 27 days the duckweed tissue was transferred to fresh media of the same type and incubation was continued another 35 days under the same temperature and light culturing conditions.
# Duckweed fronds were grown in liquid Hoagland's medium containing 3% sucrose for two weeks at 23° C. under a 16 hr light/8 hr dark photoperiod with light intensity of approximately 40 μmol/m^2·sec. prior to experimentation. For callus induction, forty 100 ml portions of Murashige and Skoog medium with 3% sucrose, 0.15% Gelrite, and 0.4% Difco Bacto-agar were prepared with dicamba concentrations of 10, 20, 30, 40, 50, 60, 80, 100 μM and BA concentrations of 0.01, 0.05, 0.1, 0.5, and 1.0 μM. All media were pH adjusted to 5.8, autoclaved at 121° C. for 20 minutes, cooled, and each 100 ml was poured into 4, 100 mm×15 mm petri dishes.
# as §1, with “An eight dicamba concentrations×five BA” for “A three 2,4-D concentrations×six BA”, “design (40” for “design (18”, “The” for “The 72”, “After 28” for “After 27”, “another 45” for “another 35”
# Duckweed fronds were grown in liquid Schenk and Hildebrandt medium containing 1% sucrose for two weeks at 23° C. under a 16 hr light/8 hr dark photoperiod with light intensity of approximately 40 μmol/m^2·sec prior to experimentation. For callus induction, three basal media were tested: Murashige and Skoog, Schenk and Hildebrandt, and N6. Benzyladenine was used as the cytokinin at a concentration of 1 μM. The auxin concentrations varied with auxin type. For the relatively strong auxins, 2,4-D and dicamba, concentrations were 0, 1, 5, 10 and 20 μM. For weak auxins, NAA and IBA, the concentrations were 0, 5, 10, 20 and 50 μM. For each medium dose-response experiment, 2 liters of basal medium were prepared with BA and the pH adjusted to 5.8. The volume was aliquoted as 20, 100 ml portions. To each of these portions, the appropriate amount of auxin was added and the medium was adjusted to 0.15% Gelrite, and 0.4% Difco Bacto-agar. The media were autoclaved for 30 minutes at 121° C., cooled and 4, 100 mm×15 mm petri dishes were poured from each 100 ml portion.
# A 3 media×4 auxin×5 concentration combinations, 60 treatment, randomized dose-response experimental design was used. The design was replicated two times, with one petri dish per replication and 5 fronds per petri dish.
# [5] = half-strength SH with 10 μM BA only
compound,measurement,setting,value
"c1ccc(CNc2ncnc3nc[nH]c23)cc1 [BA, benzyladenine]",callus induction,"[1]; inducing auxin at 2, 5, 10, 20 μM, strains 8744 and 8627",not observed
same,callus growth compared with half-strength SH without plant growth regulators,[2]; [5],callus growth was faster
same,time to frond regeneration compared with half-strength SH,[2]; [5],regeneration took longer
"O=C(O)Cc1c[nH]c2ccccc12 [IAA, indoleacetic acid]",effect on frequency of GUS expression after co-cultivation,"[3]; fronds grown on 10 μM indoleacetic acid prior to inoculation, 4 days co-cultivation",increased the frequency of GUS expression
same,frequency of GUS expression in meristematic tissue,"[3]; fronds grown on SH medium with indoleacetic acid, averaged over PDA and MGL bacterial media",approximately 17%
same,co-cultivated fronds showing GUS expression,"[3]; medium containing 10 μM IAA, 4 days co-cultivation (20% without IAA)",48%
"O=C(O)CCCc1c[nH]c2ccccc12 [IBA, indolebutyric acid]",effect on the timing or ability of callus to regenerate fronds,[2]; 1 μM IBA added to medium with 10 μM BA,had no effect
"O=C(O)Cc1cccc2ccccc12 [NAA, naphthaleneacetic acid]",concentration giving the greatest callus induction,"[4]; MS medium, 1 μM BA, five weeks",10 µM
"O=C(Nc1ccccc1)Nc1cnns1 [TDZ, thidiazuron]",frequency of callus induction,"[4]; cytokinin 0-5 μM with 20 μM 2,4-D, MS medium, five weeks",greatest frequency of callus induction
COc1c(Cl)ccc(Cl)c1C(=O)O [dicamba],compact Type I callus induction on MS medium,"[4]; auxin with 1 μM BA, five weeks",some degree of callus induction
same,compact Type I callus induction on N6 medium,"[4]; auxin with 1 μM BA, five weeks",produced callus
same,callus proliferation,"[4]; dicamba 10-100 μM with BA 0.01-1.0 μM, Murashige and Skoog medium, 73 days",callus proliferation was poor
same,concentration above which callus proliferation did not occur,"[4]; dicamba with BA 0.01-1.0 μM, Murashige and Skoog medium, 73 days",above 30 μM
same,concentration at which callus induction was observed,"[1]; strain 8744, auxin experiment",20 µM
OC[C@@H](O)[C@@H](O)[C@H](O)[C@H](O)CO [mannitol],concentration in bacterial resuspension solution giving the highest frequencies of GUS expression,"[3]; 0, 0.2, 0.4, 0.6, 0.8 M tested, regardless of media, 4 days co-cultivation in the dark",0.6 M
